Source: ChEMBL document CHEMBL1139812, “Kinesin spindle protein (KSP) inhibitors. Part 8: Design and synthesis of 1,4-diaryl-4,5-dihydropyrazoles as potent inhibitors of the mitotic kinesin KSP” (Bioorg Med Chem Lett, 2007)

Tests used:
[1] = biological target: T1, Kinesin-like protein KIF11 (Homo sapiens, UniProt P52732); assay: Inhibition of kinesin spindle protein by ATPase assay
T1 sequence (P52732 whole entry): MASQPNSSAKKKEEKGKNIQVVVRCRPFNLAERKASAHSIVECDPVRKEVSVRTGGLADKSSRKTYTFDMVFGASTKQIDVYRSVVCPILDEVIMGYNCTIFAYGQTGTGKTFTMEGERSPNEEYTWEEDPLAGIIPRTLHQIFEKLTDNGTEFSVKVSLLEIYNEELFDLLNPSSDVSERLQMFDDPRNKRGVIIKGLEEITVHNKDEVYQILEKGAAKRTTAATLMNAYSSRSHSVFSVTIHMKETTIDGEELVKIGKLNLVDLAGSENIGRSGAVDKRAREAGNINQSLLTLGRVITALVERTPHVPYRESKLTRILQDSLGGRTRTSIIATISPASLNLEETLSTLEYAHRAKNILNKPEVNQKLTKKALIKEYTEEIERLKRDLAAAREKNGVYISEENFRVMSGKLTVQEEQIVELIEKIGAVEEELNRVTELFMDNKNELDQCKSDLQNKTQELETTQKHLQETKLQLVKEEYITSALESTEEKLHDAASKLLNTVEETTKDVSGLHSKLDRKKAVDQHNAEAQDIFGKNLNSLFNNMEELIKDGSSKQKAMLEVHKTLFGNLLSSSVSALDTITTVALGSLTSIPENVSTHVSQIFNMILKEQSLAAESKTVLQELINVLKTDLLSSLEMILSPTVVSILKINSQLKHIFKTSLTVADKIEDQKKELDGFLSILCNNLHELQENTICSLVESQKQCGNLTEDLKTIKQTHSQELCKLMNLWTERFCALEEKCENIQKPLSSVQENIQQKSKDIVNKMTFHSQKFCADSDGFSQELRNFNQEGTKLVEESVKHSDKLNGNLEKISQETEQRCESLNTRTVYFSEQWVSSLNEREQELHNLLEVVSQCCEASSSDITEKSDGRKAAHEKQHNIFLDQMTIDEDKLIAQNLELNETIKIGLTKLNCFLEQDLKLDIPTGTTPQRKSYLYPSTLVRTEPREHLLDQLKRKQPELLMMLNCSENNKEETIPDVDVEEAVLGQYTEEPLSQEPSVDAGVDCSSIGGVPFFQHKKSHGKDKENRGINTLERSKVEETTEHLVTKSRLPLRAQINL

KB 3-1 = assay: Ratio of IC50 for KB-V-1 cells to IC50 for KB-3-1 cells; type: functional, Homo sapiens
[2] = biological target: Voltage-gated inwardly rectifying potassium channel KCNH2 (Homo sapiens, UniProt Q12809); assay: Inhibition of hERG expressed in HEK cells; type: toxicity, cell-based, HEK293
[3] = Protein binding in mouse plasma; type: ADME, cell-free; details: read-out: PB (converted)
Homo sapiens = organism: Homo sapiens; assay: Protein binding in human plasma; details: read-out: PB (converted)
[4] = biological target: T1, Kinesin-like protein KIF11; assay: Inhibition of KSP-induced nucleolin phosphorylation in cell-based mitotic arrest assay; type: functional
A2780 = assay: Mitotic arrest in human A2780 cells xenografted nude mouse assessed as induction of phospho-histone H3 at 3.5 mg/kg; type: functional
[5] = Solubility at pH 4; type: physicochemical; details: buffer

Chain of Voltage-gated inwardly rectifying potassium channel KCNH2 (Q12809 whole entry): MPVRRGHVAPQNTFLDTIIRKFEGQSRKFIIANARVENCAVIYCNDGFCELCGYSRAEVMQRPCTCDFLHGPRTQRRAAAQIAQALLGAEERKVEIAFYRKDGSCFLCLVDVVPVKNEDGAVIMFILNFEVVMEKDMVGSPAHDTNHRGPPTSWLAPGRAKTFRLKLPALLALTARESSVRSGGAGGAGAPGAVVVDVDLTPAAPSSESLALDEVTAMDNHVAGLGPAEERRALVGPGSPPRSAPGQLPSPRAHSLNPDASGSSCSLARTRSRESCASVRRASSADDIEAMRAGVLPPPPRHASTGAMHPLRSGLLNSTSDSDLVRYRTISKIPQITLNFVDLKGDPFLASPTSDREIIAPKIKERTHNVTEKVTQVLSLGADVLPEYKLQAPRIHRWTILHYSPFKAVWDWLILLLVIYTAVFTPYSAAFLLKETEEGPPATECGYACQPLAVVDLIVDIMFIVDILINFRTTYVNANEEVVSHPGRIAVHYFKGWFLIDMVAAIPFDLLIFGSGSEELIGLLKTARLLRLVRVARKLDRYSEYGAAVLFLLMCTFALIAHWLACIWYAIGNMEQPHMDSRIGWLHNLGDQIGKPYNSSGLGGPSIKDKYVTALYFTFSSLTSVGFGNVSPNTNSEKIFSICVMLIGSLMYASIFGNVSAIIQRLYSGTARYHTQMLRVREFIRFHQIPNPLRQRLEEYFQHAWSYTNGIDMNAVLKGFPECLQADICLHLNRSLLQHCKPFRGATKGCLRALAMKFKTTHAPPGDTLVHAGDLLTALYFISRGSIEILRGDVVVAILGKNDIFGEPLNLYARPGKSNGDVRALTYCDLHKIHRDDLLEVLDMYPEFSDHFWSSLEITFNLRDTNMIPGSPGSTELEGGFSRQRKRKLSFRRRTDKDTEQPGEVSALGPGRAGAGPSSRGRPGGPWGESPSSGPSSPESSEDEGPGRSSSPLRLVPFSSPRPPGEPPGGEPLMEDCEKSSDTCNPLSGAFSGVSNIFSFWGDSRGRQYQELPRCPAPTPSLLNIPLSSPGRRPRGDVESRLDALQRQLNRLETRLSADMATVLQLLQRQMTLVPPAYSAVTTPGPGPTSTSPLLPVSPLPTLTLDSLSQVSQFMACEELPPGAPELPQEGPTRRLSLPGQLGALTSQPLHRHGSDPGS

| IC50 [1] | EC50 [4] | Structure (SMILES) | further results |
| --- | --- | --- | --- |
| 4 nM | 567 nM | CC(=O)C1=NN(c2cc(F)ccc2F)CC1(CCCN(C)Cc1cc(C)no1)c1ccccc1 (racemic) | – |
| 4.2 nM | 53 nM | CC(=O)C1=NN(c2cc(F)ccc2F)CC1(CCCN1CCOCC1)c1ccccc1 (racemic) | – |
| 3.8 nM | 15 nM | CC(=O)C1=NN(c2cc(F)ccc2F)CC1(CCCN1CCCC1)c1ccccc1 (racemic) | – |
| 1.2 nM | 11 nM | CC(=O)C1=NN(c2cc(F)ccc2F)CC1(CCCN1CC2CC1CO2)c1ccccc1 (racemic) | – |
| 2.1 nM | 9.4 nM | CC(=O)C1=NN(c2cc(F)ccc2F)CC1(CCCN(C)C)c1ccccc1 (racemic) | – |
| 3.9 nM | 46 nM | CC(=O)C1=NN(c2cc(Cl)ccc2F)CC1(CCCN1CCN(C(C)=O)CC1)c1ccccc1 (racemic) | – |
| 10.1 nM | 208 nM | CC(=O)C1=NN(c2cc(C(F)(F)F)ccc2F)CC1(CCCN1CCN(C(C)=O)CC1)c1ccccc1 (racemic) | – |
| 5.2 nM | 40 nM | CC(=O)C1=NN(c2cc(F)ccc2F)CC1(CCCN1CC(F)C1)c1ccccc1 (racemic) | – |
| 3.8 nM | 78 nM | CC(=O)C1=NN(c2cc(F)ccc2F)CC1(CCCN1CCN(C(C)=O)CC1)c1ccccc1 (racemic) | – |
| 4.7 nM | 38 nM | CC(=O)C1=NN(c2cc(Br)ccc2F)CC1(CCCN1CCN(C(C)=O)CC1)c1ccccc1 (racemic) | – |
| 21.8 nM | 368 nM | CC(=O)C1=NN(c2ccccc2F)CC1(CCCN1CCN(C(C)=O)CC1)c1ccccc1 (racemic) | – |
| 16.5 nM | 138 nM | CC(=O)C1=NN(c2cc(F)ccc2F)CC1(CCCN1CCS(=O)(=O)CC1)c1ccccc1 (racemic) | – |

| Structure (SMILES) | IC50 [1] | EC50 [4] | further results |
| --- | --- | --- | --- |
| CC(=O)C1=NN(c2cc(C)ccc2F)C[C@@]1(CCCN(C)C)c1ccccc1 | 0.2 nM | 3.2 nM | Ratio IC50 (KB 3-1): 1.6; IC50 [2]: 3040 nM; fraction unbound [3]: 0.07; fraction unbound (Homo sapiens): 0.04; EC99 (A2780): 67 nM; solubility [5]: > 4000 µg/mL |
| CC(=O)C1=NN2c3cc(F)ccc3OC[C@H]2[C@@]1(CCCN1CCN(C(C)=O)CC1)c1ccccc1 | – | 5 nM | EC99 (A2780): 100 nM; solubility [5]: > 4000 µg/mL |
| CC(=O)C1=NN(c2cc(C)ccc2F)CC1(CCCN1CCN(C(C)=O)CC1)c1ccccc1 (racemic) | 2 nM | 27 nM | – |
